Reference: PubChem BioAssay AID1963849 (Molecular Pharmacology Branch, DTP, NCI, 2024)

Tested on: 299254-011-R-J1-PDC complex spheroid viability
Assay: Anticancer human tumor 299254-011-R-J1-PDC patient-derived melanoma cell line growth inhibition [POLQ]
Settings: for IC50: curve of first compound; for viability, T/C: stronger effect = lower value
How it was run: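 Patient-derived tumour cells were co-cultured with HUVEC and mesenchymal stem cells as multicellular spheroids at 37 °C. They were treated with POLQ inhibitors (novobiocin, ART-558, RP6685) alone or combined with other agents. Top concentrations were at or near clinical Cmax (otherwise 10 microM; SN-38 at 1 microM), decreasing in half-log steps.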

[1] = second compound 0.0316 µM, first compound 0.00316 µM
[2] = second compound 0.0316 µM, first compound 0.01 µM
[3] = second compound 0.0316 µM, first compound 0.0316 µM
[4] = second compound 0.0316 µM, first compound 0.1 µM
[5] = second compound 0.0316 µM, first compound 0.316 µM
[6] = second compound 0.0316 µM, first compound 1 µM
[7] = second compound 0.1 µM, first compound 0.00316 µM
[8] = second compound 0.1 µM, first compound 0.01 µM
[9] = second compound 0.1 µM, first compound 0.0316 µM
[10] = second compound 0.1 µM, first compound 0.1 µM
[11] = second compound 0.1 µM, first compound 0.316 µM
[12] = second compound 0.1 µM, first compound 1 µM
[13] = second compound 0.316 µM, first compound 0.00316 µM
[14] = second compound 0.316 µM, first compound 0.01 µM
[15] = second compound 0.316 µM, first compound 0.0316 µM
[16] = second compound 0.316 µM, first compound 0.1 µM
[17] = second compound 0.316 µM, first compound 0.316 µM
[18] = second compound 0.316 µM, first compound 1 µM
[19] = second compound 1 µM, first compound 0.00316 µM
[20] = second compound 1 µM, first compound 0.01 µM
[21] = second compound 1 µM, first compound 0.0316 µM
[22] = second compound 1 µM, first compound 0.1 µM
[23] = second compound 1 µM, first compound 0.316 µM
[24] = second compound 1 µM, first compound 1 µM
[25] = second compound 3.16 µM, first compound 0.00316 µM
[26] = second compound 3.16 µM, first compound 0.01 µM
[27] = second compound 3.16 µM, first compound 0.0316 µM
[28] = second compound 3.16 µM, first compound 0.1 µM
[29] = second compound 3.16 µM, first compound 0.316 µM
[30] = second compound 3.16 µM, first compound 1 µM
[31] = second compound 10 µM, first compound 0.00316 µM
[32] = second compound 10 µM, first compound 0.01 µM
[33] = second compound 10 µM, first compound 0.0316 µM
[34] = second compound 10 µM, first compound 0.1 µM
[35] = second compound 10 µM, first compound 0.316 µM
[36] = second compound 10 µM, first compound 1 µM
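Also: spheroids exposed to drugs for one week before measurement.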
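For viability, T/C in this document: percent viability relative to DMSO vehicle control taken as 100%.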

SMILES: CCc1c2c(nc3ccc(O)cc13)-c1cc3c(c(=O)n1C2)COC(=O)[C@]3(O)CC + Cc1cccc(N(C)C(=O)C2C(O)CCN2c2nc(C)cc(C(F)(F)F)c2C#N)c1
- IC50 (second compound 0.0316 µM): > 1000 nM
- IC50 (second compound 0.1 µM): > 1000 nM
- IC50 (second compound 0.316 µM): > 1000 nM
- IC50 (second compound 1 µM): > 1000 nM
- IC50 (second compound 3.16 µM): > 1000 nM
- IC50 (second compound 10 µM): > 1000 nM
- viability, T/C [1]: 95.9%
- viability, T/C [2]: 79.2%
- viability, T/C [3]: 72.9%
- viability, T/C [4]: 67.8%
- viability, T/C [5]: 62.5%
- viability, T/C [6]: 53.7%
- viability, T/C [7]: 92.8%
- viability, T/C [8]: 95.7%
- viability, T/C [9]: 65.3%
- viability, T/C [10]: 67.6%
- viability, T/C [11]: 72.8%
- viability, T/C [12]: 56.4%
- viability, T/C [13]: 104%
- viability, T/C [14]: 86.3%
- viability, T/C [15]: 75.3%
- viability, T/C [16]: 76.2%
- viability, T/C [17]: 56.7%
- viability, T/C [18]: 53%
- viability, T/C [19]: 111%
- viability, T/C [20]: 88.5%
- viability, T/C [21]: 75.1%
- viability, T/C [22]: 64.7%
- viability, T/C [23]: 68.6%
- viability, T/C [24]: 49.6%
- viability, T/C [25]: 112%
- viability, T/C [26]: 79%
- viability, T/C [27]: 72.1%
- viability, T/C [28]: 64.8%
- viability, T/C [29]: 71.6%
- viability, T/C [30]: 60%
- viability, T/C [31]: 88.6%
- viability, T/C [32]: 69.3%
- viability, T/C [33]: 57.9%
- viability, T/C [34]: 81.5%
- viability, T/C [35]: 60.1%
- viability, T/C [36]: 49.7%

SMILES: CNCc1ccc(-c2[nH]c3cc(F)cc4c3c2CCNC4=O)cc1 + Cc1cccc(N(C)C(=O)C2C(O)CCN2c2nc(C)cc(C(F)(F)F)c2C#N)c1
- IC50 (second compound 0.0316 µM): > 10000 nM
- IC50 (second compound 0.1 µM): > 10000 nM
- IC50 (second compound 0.316 µM): > 10000 nM
- IC50 (second compound 1 µM): > 10000 nM
- IC50 (second compound 3.16 µM): > 10000 nM
- IC50 (second compound 10 µM): > 10000 nM
- viability, T/C [3]: 101%
- viability, T/C [4]: 100%
- viability, T/C [5]: 104%
- viability, T/C [6]: 109%
- viability, T/C (second compound 0.0316 µM, first compound 3.16 µM): 104%
- viability, T/C (second compound 0.0316 µM, first compound 10 µM): 136%
- viability, T/C [9]: 102%
- viability, T/C [10]: 105%
- viability, T/C [11]: 110%
- viability, T/C [12]: 112%
- viability, T/C (second compound 0.1 µM, first compound 3.16 µM): 112%
- viability, T/C (second compound 0.1 µM, first compound 10 µM): 118%
- viability, T/C [15]: 109%
- viability, T/C [16]: 110%
- viability, T/C [17]: 98.1%
- viability, T/C [18]: 108%
- viability, T/C (second compound 0.316 µM, first compound 3.16 µM): 130%
- viability, T/C (second compound 0.316 µM, first compound 10 µM): 116%
- viability, T/C [21]: 107%
- viability, T/C [22]: 109%
- viability, T/C [23]: 98.3%
- viability, T/C [24]: 103%
- viability, T/C (second compound 1 µM, first compound 3.16 µM): 119%
- viability, T/C (second compound 1 µM, first compound 10 µM): 118%
- viability, T/C [27]: 120%
- viability, T/C [28]: 110%
- viability, T/C [29]: 117%
- viability, T/C [30]: 109%
- viability, T/C (second compound 3.16 µM, first compound 3.16 µM): 112%
- viability, T/C (second compound 3.16 µM, first compound 10 µM): 119%
- viability, T/C [33]: 113%
- viability, T/C [34]: 98.5%
- viability, T/C [35]: 96.8%
- viability, T/C [36]: 97%
- viability, T/C (second compound 10 µM, first compound 3.16 µM): 108%
- viability, T/C (second compound 10 µM, first compound 10 µM): 118%

SMILES: COc1cccc(OCCCN)c1-c1cc(Nc2cnc(C#N)cn2)n[nH]1 + Cc1cccc(N(C)C(=O)C2C(O)CCN2c2nc(C)cc(C(F)(F)F)c2C#N)c1
- IC50 (second compound 0.0316 µM): 188 nM
- IC50 (second compound 0.1 µM): 136 nM
- IC50 (second compound 0.316 µM): 95.4 nM
- IC50 (second compound 1 µM): 207 nM
- IC50 (second compound 3.16 µM): 105 nM
- IC50 (second compound 10 µM): 112 nM
- viability, T/C [1]: 99.2%
- viability, T/C [2]: 108%
- viability, T/C [3]: 71.2%
- viability, T/C [4]: 64.1%
- viability, T/C [5]: 39.6%
- viability, T/C [6]: 42%
- viability, T/C [7]: 92.7%
- viability, T/C [8]: 104%
- viability, T/C [9]: 75.6%
- viability, T/C [10]: 53.7%
- viability, T/C [11]: 49%
- viability, T/C [12]: 38.2%
- viability, T/C [13]: 100%
- viability, T/C [14]: 106%
- viability, T/C [15]: 74.7%
- viability, T/C [16]: 52%
- viability, T/C [17]: 49.2%
- viability, T/C [18]: 45.6%
- viability, T/C [19]: 90.6%
- viability, T/C [20]: 103%
- viability, T/C [21]: 71.1%
- viability, T/C [22]: 65.9%
- viability, T/C [23]: 40.6%
- viability, T/C [24]: 38.9%
- viability, T/C [25]: 120%
- viability, T/C [26]: 107%
- viability, T/C [27]: 72.3%
- viability, T/C [28]: 52.2%
- viability, T/C [29]: 41%
- viability, T/C [30]: 33.9%
- viability, T/C [31]: 103%
- viability, T/C [32]: 85.1%
- viability, T/C [33]: 64.8%
- viability, T/C [34]: 54.1%
- viability, T/C [35]: 37.8%
- viability, T/C [36]: 39.8%

SMILES: Cn1ncnc1[C@H]1c2n[nH]c(=O)c3cc(F)cc(c23)N[C@@H]1c1ccc(F)cc1 + Cc1cccc(N(C)C(=O)C2C(O)CCN2c2nc(C)cc(C(F)(F)F)c2C#N)c1
- IC50 (second compound 0.0316 µM): > 100 nM
- IC50 (second compound 0.1 µM): > 100 nM
- IC50 (second compound 0.316 µM): > 100 nM
- IC50 (second compound 1 µM): > 100 nM
- IC50 (second compound 3.16 µM): > 100 nM
- IC50 (second compound 10 µM): > 100 nM
- viability, T/C (second compound 0.0316 µM, first compound 0.000316 µM): 102%
- viability, T/C (second compound 0.0316 µM, first compound 0.001 µM): 91.6%
- viability, T/C [1]: 95.9%
- viability, T/C [2]: 110%
- viability, T/C [3]: 112%
- viability, T/C [4]: 113%
- viability, T/C (second compound 0.1 µM, first compound 0.000316 µM): 119%
- viability, T/C (second compound 0.1 µM, first compound 0.001 µM): 108%
- viability, T/C [7]: 117%
- viability, T/C [8]: 106%
- viability, T/C [9]: 114%
- viability, T/C [10]: 119%
- viability, T/C (second compound 0.316 µM, first compound 0.000316 µM): 108%
- viability, T/C (second compound 0.316 µM, first compound 0.001 µM): 96.4%
- viability, T/C [13]: 102%
- viability, T/C [14]: 114%
- viability, T/C [15]: 106%
- viability, T/C [16]: 102%
- viability, T/C (second compound 1 µM, first compound 0.000316 µM): 111%
- viability, T/C (second compound 1 µM, first compound 0.001 µM): 116%
- viability, T/C [19]: 103%
- viability, T/C [20]: 114%
- viability, T/C [21]: 102%
- viability, T/C [22]: 94.1%
- viability, T/C (second compound 3.16 µM, first compound 0.000316 µM): 90.1%
- viability, T/C (second compound 3.16 µM, first compound 0.001 µM): 109%
- viability, T/C [25]: 103%
- viability, T/C [26]: 111%
- viability, T/C [27]: 122%
- viability, T/C [28]: 114%
- viability, T/C (second compound 10 µM, first compound 0.000316 µM): 93.6%
- viability, T/C (second compound 10 µM, first compound 0.001 µM): 107%
- viability, T/C [31]: 113%
- viability, T/C [32]: 94%
- viability, T/C [33]: 98%
- viability, T/C [34]: 99%
